Counter-ions that a name gives are not always drawn.
How the values were obtained:
[1] = tested on: platelet aggregation; conditions: cited from earlier work; for Platelet aggregation inhibiting activity of the enantiomers: as described in EP 281459
[2] = versus Aspirin; cited from earlier work
[3] = Form-I obtained by the ethyl acetate process

COC(=O)C(c1ccccc1Cl)N1CCc2sccc2C1 (single isomer, unassigned) [levo-rotatory isomer]
Platelet aggregation inhibiting activity of the enantiomers [1]: less active

COC(=O)[C@H](c1ccccc1Cl)N1CCc2sccc2C1 [Clopidogrel hydrogen sulfate, bisulfate of methyl-(+)-(S)-α-(2-chlorophenyl)-4,5,6,7-tetrahydrothieno[3,2,-c]pyridine-5-acetate]
Platelet aggregation inhibiting activity of the enantiomers [1]: excellent platelet aggregation inhibiting activity

COC(=O)[C@H](c1ccccc1Cl)N1CCc2sccc2C1 [Clopidogrel]
Effectiveness in blocking platelet aggregation compared with Aspirin ([1]; recent studies, versus Aspirin): more effective in blocking platelet aggregation than Asprin | Gastrointestinal bleeding compared with Aspirin [2]: much less gastrointestinal bleeding than Asprin

COC(=O)[C@H](c1ccccc1Cl)N1CCc2sccc2C1 [Form-I, Methyl-(+)-(S)-α-(2-Chlorophenyl)-6,7-dihydrothieno[3,2-c]pyridine-5(4H)-acetate bisulfate Form-I]
Stability of the crystal form / conversion to other forms [3]: stable and does not convert to any other forms

From patent US7482453B2, “Process for the manufacture of (+)-(S)-clopidogrel bisulfate form-1” (Wockhardt Ltd., priority 2003, dated 2009)
